Assay results as given in the supplement of paper PMC10307832.

Assays:
Assay in all cases: relative viability (nuclei count vs DMSO), 5 days (fraction); higher = more cells survive
Alpelisib + Olaparib = compound: Cc1nc(NC(=O)N2CCC[C@H]2C(N)=O)sc1-c1ccnc(C(C)(C)C(F)(F)F)c1 [Alpelisib] + O=C(c1cc(Cc2n[nH]c(=O)c3ccccc23)ccc1F)N1CCN(C(=O)C2CC2)CC1 [Olaparib] (partner 8 µM)
Outline: (§1)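 After 5 days of treatment, lung cancer cells in 1536-well plates were fixed and stained in a single step (final 0.05% Triton X-100, 1% formaldehyde, 1 ug/ml Hoechst) and their nuclei counted on 4× images. Treatment had been applied by pin tool the day after seeding as one drug alone or as a fixed anchor-drug dose with five library-drug doses (not always all listed) in √10 steps. Relative viability is the nuclei count of treated wells divided by that of vehicle wells, and values are medians of duplicate plates.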

Alpelisib + Pemetrexed = compound: Cc1nc(NC(=O)N2CCC[C@H]2C(N)=O)sc1-c1ccnc(C(C)(C)C(F)(F)F)c1 [Alpelisib] + Nc1nc2[nH]cc(CCc3ccc(C(=O)N[C@@H](CCC(=O)O)C(=O)O)cc3)c2c(=O)[nH]1 [Pemetrexed] (partner 0.2 µM)
Outline: as §1

Vemurafenib + Bortezomib = compound: CCCS(=O)(=O)Nc1ccc(F)c(C(=O)c2c[nH]c3ncc(-c4ccc(Cl)cc4)cc23)c1F [Vemurafenib] + CC(C)C[C@H](NC(=O)[C@H](Cc1ccccc1)NC(=O)c1cnccn1)B(O)O [Bortezomib] (partner 0.002 µM)
Outline: as §1

Vemurafenib + Vorinostat = compound: CCCS(=O)(=O)Nc1ccc(F)c(C(=O)c2c[nH]c3ncc(-c4ccc(Cl)cc4)cc23)c1F [Vemurafenib] + O=C(CCCCCCC(=O)Nc1ccccc1)NO [Vorinostat] (partner 1 µM)
Outline: as §1

Row | Cell Line | relative viability (Alpelisib + Olaparib; first compound 0.04 µM) | relative viability (Alpelisib + Olaparib; first compound 0.1265 µM) | relative viability (Alpelisib + Olaparib; first compound 0.4 µM) | relative viability (Alpelisib + Olaparib; first compound 1.265 µM) | relative viability (Alpelisib + Olaparib; first compound 4 µM) | relative viability (Alpelisib + Pemetrexed; first compound 0.04 µM) | relative viability (Alpelisib + Pemetrexed; first compound 0.1265 µM) | relative viability (Alpelisib + Pemetrexed; first compound 0.4 µM) | relative viability (Alpelisib + Pemetrexed; first compound 1.265 µM) | relative viability (Alpelisib + Pemetrexed; first compound 4 µM) | relative viability (Vemurafenib + Bortezomib; first compound 0.03162 µM) | relative viability (Vemurafenib + Bortezomib; first compound 0.3162 µM) | relative viability (Vemurafenib + Bortezomib; first compound 1 µM) | relative viability (Vemurafenib + Vorinostat; first compound 0.03162 µM) | relative viability (Vemurafenib + Vorinostat; first compound 0.1 µM) | relative viability (Vemurafenib + Vorinostat; first compound 0.3162 µM) | relative viability (Vemurafenib + Vorinostat; first compound 1 µM) | relative viability (Vemurafenib + Bortezomib; first compound 0.1 µM)
1 | HARA | 0.696 | 0.64 | 0.742 | 0.453 | 0.452 | 0.254 | 0.249 | 0.26 | 0.23 | 0.274 | 1.08 | 0.603 | 1.12 | 0.424 | 0.517 | 0.399 | 0.54 | –
2 | LU99A | 0.245 | 0.282 | 0.268 | 0.287 | 0.232 | 0.187 | 0.188 | 0.193 | 0.154 | 0.159 | 1.02 | 1.05 | 1.04 | 0.513 | 0.578 | – | 0.466 | 1.07
3 | NCI-H2087 | 0.557 | 0.514 | 0.653 | 0.483 | 0.444 | 0.634 | 0.625 | 0.679 | 0.65 | 0.606 | 0.759 | – | 0.753 | 0.894 | 0.958 | 0.531 | 0.716 | 0.701
4 | NCI-H1734 | 0.584 | 0.328 | 0.61 | 0.425 | 0.35 | 0.407 | 0.406 | 0.394 | 0.406 | 0.399 | 0.855 | 0.709 | 0.815 | 0.809 | 0.783 | 0.759 | 0.702 | 1.01
5 | HCC-44 | 0.979 | 0.943 | 1.07 | 0.979 | 0.936 | 0.65 | 0.706 | 0.698 | 0.65 | 0.619 | 0.861 | 0.824 | 0.861 | 1.09 | 1.01 | 1.09 | 1.16 | 0.993
6 | PC-3 [JPC-3] | 1.23 | 1.1 | 1.24 | 0.967 | 1.02 | 1.23 | 0.559 | 1.12 | 0.969 | 0.801 | 0.81 | 0.804 | 0.887 | – | – | 0.66 | 1.06 | –
7 | NCI-H1651 | 0.182 | 0.188 | 0.203 | 0.198 | 0.17 | 0.543 | 0.525 | 0.594 | 0.541 | 0.538 | 0.851 | 0.769 | 1 | 0.524 | 0.581 | 0.471 | 0.625 | 0.949
8 | NCI-H460 | 0.446 | 0.501 | 0.496 | 0.42 | 0.375 | 0.0625 | 0.0624 | 0.0552 | 0.0558 | 0.033 | 0.982 | 0.932 | 1.04 | 0.661 | 0.729 | 0.665 | 0.723 | 1.1
9 | NCI-H2228 | 0.889 | 0.587 | 0.621 | 0.341 | 0.326 | 0.35 | 0.228 | 0.39 | 0.272 | 0.319 | 1.03 | 1.24 | 1.15 | 0.457 | 0.536 | 0.589 | 0.595 | 1
